Source: patent US20240245617A1, “LIPID-BASED TOPICAL INJECTION FORMULATIONS” (Beijing Jitai Pharmaceutical Technology Co., Ltd., priority 2022, published 2024)

Tested on: C57BL/6 mice
Assay: In vivo bioluminescence after intravenous administration of lipid nanoparticles encapsulating luciferase mRNA
Conditions: 0.5 mg/kg mRNA, liver
Experimental: The delivery effect and safety of nanoparticles encapsulating luciferase mRNA (Trilink, L-7202) in mice were evaluated. The test mice were SPF-grade C57BL/6 mice, female, 6-8 weeks old, weighing 18-22 g, and were purchased from SPF (Beijing) Biotechnology Co., Ltd. All animals were acclimatized for more than 7 days prior to the experiment, and had free access to food and water during the experiment. The conditions include alternating light and dark for 12/12 h, the indoor temperature of 20-26° C. and the humidity of 40-70%. The mice were randomly grouped. The lipid nanoparticles encapsulating luciferase mRNA prepared above were injected into mice by intravenous administration at a single dose of 0.5 mg/kg mRNA, and the mice were subjected to in vivo bioluminescence assay using a Small Animal In Vivo Imaging System (IVIS LUMINA III, purchased from PerkinElmer) at 6 h after administration. The assay was performed as follows: D-luciferin solution was prepared in saline at a concentration of 15 mg/mL, and each mouse was given the substrate by intraperitoneal injection. At ten minutes after administration of the substrate, the mice were anesthetized in an anesthesia chamber with isoflurane at a concentration of 2.5%. […] Data acquisition and analysis were performed on the liver.
The in vivo delivery efficiency of lipid nanoparticle carriers was expressed as the mean values of fluorescence intensity and total photon count in different animals within the same subject group, as shown in Table 4. Higher values of fluorescence intensity and total photon count indicate higher in vivo delivery efficiency of this mRNA fragment by lipid nanoparticles. The lipid nanoparticles containing the cationic lipids of the present disclosure have good in vivo delivery efficiency and mainly target the liver.

SMILES	Total photon count in vivo at 6 hours after administration (Total Flux)
CCCCCCCCCSC(=O)C(C)(C)CCCCCC(CCCCCC(C)(C)C(=O)SCCCCCCCCC)OC(=O)C1CCN(C(C)C)CC1 [Compound 107]	1.36E+10
CCCCCCCC#CCOC(=O)C(C)(C)CCCCCC(CCCCCC(C)(C)C(=O)OCCCC(CCCCC)CCCCC)OC(=O)CCCN(C)C (centres unmarked) [Compound 115]	2.56E+10
CCCCCCC/C=C\COC(=O)C(C)(C)CCCCCC(CCCCCC(C)(C)C(=O)OC/C=C\CCCCCCC)OC(=O)CCCN(C)C [Compound 26]	>4.00E+10
CCCCCCCCCCSC(=O)C(C)(C)CCCCCC(CCCCCC(C)(C)C(=O)SCCCCCCCCCC)OC(=O)CCCN(C)C [Compound 34]	1.26E+10
CCCCCCCCCSC(=O)C(C)(C)CCCCCC(CCCCCC(C)(C)C(=O)SCCCCCCCCC)OC(=O)CCCN(C)C [Compound 37]	7.88E+09
CCCCCCCCCOC(=O)C(C)(C)CCCCCC(CCCCCC(C)(C)C(=O)OCC(CCCCC)CCCCCCC)OC(=O)CCCN(C)C (centres unmarked) [Compound 46]	>4.00E+10
CCCCCCCCCOC(=O)C(C)(C)CCCCCCC(CCCCCCC(C)(C)C(=O)OCC(CCCCC)CCCCCCC)OC(=O)CCCCN(C)C (centres unmarked) [Compound 126]	1.77E+10
CCCCCCC#CCOC(=O)C(C)(C)CCCCCC(CCCCCC(C)(C)C(=O)OCCCCCCCCC)OC(=O)CCCN(C)C (centres unmarked) [Compound 42]	5.32E+09
CCCCCCCCCCOC(=O)C(C)(C)CCCCCC(CCCCCC(C)(C)C(=O)OCCCCCCCCCC)OC(=O)CN(C)C [Compound 17]	6.77E+05
CCCCCCCCCSC(=O)C(C)(C)CCCCCC(CCCCCC(C)(C)C(=O)SCCCCCCCCC)OC(=O)CC1CCN(CC)CC1 [Compound 109]	1.32E+10
CCCCCCCCCOC(=O)C(C)(C)CCCCCC(CCCCCC(C)(C)C(=O)OCCCCCCCCC)OC(=O)C1CCN(C(C)C)CC1 [Compound 103]	5.69E+09
CCCCCCCC#CCOC(=O)C(C)(C)CCCCCC(CCCCCC(C)(C)C(=O)OCC(CCCCC)CCCCCCC)OC(=O)CCCN(C)C (centres unmarked) [Compound 116]	>4.00E+10
CCCCCCCCOC(=O)C(C)(C)CCCCCC(CCCCCC(C)(C)C(=O)OCCCCCCCC)OC(=O)CCCN(C)C [Compound 19]	3.20E+09
CCCCCCCCOC(=O)C(C)(C)CCCCCC(CCCCCC(C)(C)C(=O)OCCCCCCCC)OC(=O)CCN(C)C [Compound 2]	4.23E+08
CC(C)CCCC(C)CCOC(=O)C(C)(C)CCCCCC(CCCCCC(C)(C)C(=O)OCCC(C)CCCC(C)C)OC(=O)CCN(C)C (centres unmarked) [Compound 6]	2.25E+09
CCCCCCCCCCSC(=O)C(C)(C)CCCCCC(CCCCCC(C)(C)C(=O)SCCCCCCCCCC)OC(=O)C1CCN(C)CC1 [Compound 104]	2.61E+10
CCCCCCCCCCSC(=O)C(C)(C)CCCCCC(CCCCCC(C)(C)C(=O)SCCCCCCCCCC)OC(=O)CCN(C)C [Compound 33]	2.12E+08
CCCCCCCCCOC(=O)C(C)(C)CCCCCC(CCCCCC(C)(C)C(=O)OCCCCCCCCC)OC(=O)CCN(C)C [Compound 3]	1.75E+09
CCCCCCCCC(CCCCCCCC)NC(=O)C(C)(C)CCCCCC(CCCCCC(C)(C)C(=O)NC(CCCCCCCC)CCCCCCCC)OC(=O)CCN(C)C [Compound 11]	4.42E+06

SMILES	Total photon count in vivo at 6 hours after administration (Total Flux)
CCCCCCCCCCOC(=O)C(C)(C)CCCCCC(CCCCCC(C)(C)C(=O)OCCCCCCCCCC)OC(=O)CCCN(C)C [Compound 18]	1.14E+10
CCCCCCCC(CCCCCCC)COC(=O)CCC(C)(C)CCCC(CCCC(C)(C)CCC(=O)OCC(CCCCCCC)CCCCCCC)OC(=O)CCCN(C)C [Compound 129]	7.82E+09
CCCCCCC/C=C\COC(=O)CC(C)(C)CCCCC(CCCCC(C)(C)CC(=O)OCC(CCCCC)CCCCCCC)OC(=O)CCCN(C)C (centres unmarked) [Compound 98]	2.12E+10
CCCCCCCCCCOC(=O)C(C)(C)CCCCC(CCCCC(C)(C)C(=O)OCC(CCCCC)CCCCCCC)OC(=O)CCCN(C)C (centres unmarked) [Compound 123]	>4.00E+10
CCCCCCCCCOC(=O)C(C)(C)CCCCC(CCCCC(C)(C)C(=O)OCC(CCCCC)CCCCCCC)OC(=O)CCCN(C)C (centres unmarked) [Compound 122]	>4.00E+10
CCCCCCCCCOC(=O)C(C)(C)CCCCCCC(CCCCCCC(C)(C)C(=O)OCC(CCCCC)CCCCCCC)OC(=O)CCCN(C)C (centres unmarked) [Compound 125]	1.99E+10
CCCCCCCCCOC(=O)CCCCCCC(CCCCCCC(=O)OCC(CCCCC)CCCCCCC)OC(=O)CCCN(C)C (centres unmarked) [Compound 131]	1.57E+09
CCCCCCCCCOC(=O)C(C)(C)CCCCCC(CCCCCC(C)(C)C(=O)OCC#CC(CCCCCC)CCCCCC)OC(=O)CCCN(C)C (centres unmarked) [Compound 118]	3.14E+10
CCCCCCCCCOC(=O)C(C)(C)CCCCCC(CCCCCC(C)(C)C(=O)OCCCCCCCCC)OC(=O)CCCN(C)C [Compound 20]	2.40E+10
CCCCCCCCCSC(=O)C(C)(C)CCCCCC(CCCCCC(C)(C)C(=O)SCCCCCCCCC)OC(=O)C1CCN(C)CC1 [Compound 106]	1.85E+10
CCCCCCCCCCSC(=O)C(C)(C)CCCCCC(CCCCCC(C)(C)C(=O)SCCCCCCCCCC)OC(=O)C1CCN(C(C)C)CC1 [Compound 105]	3.33E+09
CCCCCCCCCNC(=O)C(C)(C)CCCCCC(CCCCCC(C)(C)C(=O)NCCCCCCCCC)OC(=O)CCN(C)C [Compound 9]	6.05E+06
CCCCCCCCCOC(=O)C(C)(C)CCCCCC(CCCCCC(C)(C)C(=O)OCC(CCCCC)CCCCCCC)OC(=O)CC1CCN(C)CC1 (centres unmarked) [Compound 111]	1.79E+10
CCCCC(CC#CCOC(=O)C(C)(C)CCCCCC(CCCCCC(C)(C)C(=O)OCC#CCC(CCCC)CCCC)OC(=O)CCCN(C)C)CCCC [Compound 117]	4.48E+09
CCCCC#CCCCCOC(=O)C(C)(C)CCCCCC(CCCCCC(C)(C)C(=O)OCCCCC#CCCCC)OC(=O)CCCN(C)C [Compound 25]	1.89E+08
CCCCCCCCOC(=O)C(C)(C)CCCCCC(CCCCCC(C)(C)C(=O)OCCCCCCCC)OC(=O)C1CCN(C(C)C)CC1 [Compound 101]	5.19E+09
CCCCCCCC#CCOC(=O)C(C)(C)CCCCCC(CCCCCC(C)(C)C(=O)OCC#CCCCCCCC)OC(=O)CCCN(C)C [Compound 23]	1.43E+10
CC/C=C\CCCCCOC(=O)C(C)(C)CCCCCC(CCCCCC(C)(C)C(=O)OCCCCC/C=C\CC)OC(=O)CCN(C)C [Compound 7]	1.16E+08
CCCCCCCCCCOC(=O)C(C)(C)CCCCCC(CCCCCC(C)(C)C(=O)OCCCCCCCCCC)OC(=O)CCN1CCOCC1 [Compound 90]	1.04E+07
